Laboratory results published in US20210379068A1, “METHODS AND MATERIALS FOR TREATING NEUROPSYCHIATRIC DISORDERS” (Mayo Foundation for Medical Education and Research, priority 2018, published 2021).
Entries after “also recorded” stand apart in the source; their conditions may differ.

Legend:
Format in all cases: in vivo, mouse
HFD-fed INK-ATTAC mice = assay: Open field test, chow/HFD INK-ATTAC mice treated with AP20187
Protocol: (§1) INK-ATTAC mice were injected intraperitoneally (i.p.) with AP20187 (10 mg/kg) or vehicle for 3 days every 2 weeks for a total of 8-10 weeks.
(§2) Locomotor activity and anxiety-like behavior of mice were assessed in sound-insulated, rectangular activity chambers (Med Associates Inc., St Albans, Vt., USA: W×L×D=27 cm×27 cm×20 cm with continually running fans, infrared lasers, and sensors). Beam breaks were assessed in 2-minute bins over 30 minutes, converted automatically to current mouse location and distance travelled (cm), and recorded on a computer with Med-PC software Version 4.0. Before the test, mice were acclimatized to the room for 1-1.5 hours before being introduced into the chambers. Mice were habituated for 5 minutes in the Open Field chamber (without recording) then placed for another 5 minutes in the home cage. Afterwards, mice were introduced back to the chambers and all mouse movements were recorded for 30 minutes. Anxiety was quantified by the distance mice travelled in the central 25% of the chamber (zone 1) as a function of the total distance mice travelled and by frequencies of entries into zone 1.

INK-ATTAC;db/db mice = assay: Open field test, INK-ATTAC;db/db mice treated with AP20187; conditions: AP20187 vs vehicle, 2 months
Protocol: as §1, §2

[1] = system: senescent cells in perigonadal adipose tissue; assay: Senescence markers in perigonadal adipose tissue, INK-ATTAC mice on HFD; conditions: AP20187 vs vehicle
Protocol: as §1
Total RNA was extracted from white adipose tissue and brain using Trizol (Life Technologies, Carlsbad, Calif.) and reverse transcribed to cDNA with a M-MLV Reverse Transcriptase kit (Life Technologies). Real-time PCR was performed in a 7500 Fast Real Time PCR System (Applied Biosystems, Foster City, Calif.) using TaqMan Fast Universal PCR Master Mix (Life Technologies) and predesigned primers and probes from Applied Biosystems (Assay ID: Mm00494449_m1 [CDKN2A]; Mm04205640_g1 [CDKN1A]; Mm00446191_m1 [IL6]). Target gene expression was expressed as 2-ΔΔCT by the comparative CT method and normalized to the expression of TATA-binding protein (TBP) (Assay ID: Mm01277042 ml [TBP]).
On the day of the sacrifice, a small piece of adipose tissue was fixed with 2% PFA and 0.5% glutaraldehyde (Sigma) for 15 minutes at room temperature before being incubated overnight in SA-β-Gal solution (150 mM NaCl (Sigma), 2 mM MgCl2 (Sigma), 40 mM Citric Acid (Sigma), 12 mM NaPO3 (Sigma), 400 μg/ml X-gal (Thermofisher), 2.1 mg/ml potassium hexacyanoferrat(II)trihydrate, and 1.65 mg/ml Potassium hexacyanoferrat(III)trihydrate (Sigma), pH 6.0) at 37° C. overnight. Fat chunks were washed with PBS three times and stored in PBS at 4° C. protected from light. Within 3 days, adipose tissue was stained with Hoechst solution (1:5000; Thermofisher), lightly squashed between two 1×3 inch glass slides, and imaged using a light microscope. 10-20 random visual fields were captured at 20× magnification at light exposure identical for all the samples. Images were quantified by manual counting of SA-β-Gal positive cells by a blinded assessor and the data were expressed as percent of total DAPI-positive cells.
Paraffin sections were deparaffinized with Histoclear and hydrated in an ethanol gradient followed by water and PBS. Antigen was retrieved by incubation in 0.01M citrate buffer (pH 6.0) at 95° C. for 10 minutes. Slides were placed in blocking buffer (1:60 normal goat serum [S-1000, Vector Laboratories] in 0.1% BSA/PBS) for 60 minutes at room temperature. […] Primary antibodies used (Table 2) were diluted in blocking buffer and applied overnight at 4° C. The next day, slides were washed 3 times with PBS and incubated for 30 minutes with secondary goat, anti-rabbit antibody (1:200; Vector Laboratories #BA-1000) for TAF staining or for 60 minutes with secondary Alexa antibody (Table 1). For TAF staining, Fluorescein-Avidin in PBS (1:500; #A-2011, Vector Lab) was applied to each sample for 20 minutes. Slides were washed 3 times in PBS, which was followed by FISH for TAF detection. Briefly, tissues were crosslinked with 4% paraformaldehyde for 20 minutes and dehydrated in graded ethanol. Sections were denatured for 10 minutes at 80° C. in hybridization buffer (70% formamide (Sigma), 25 mM MgCl2, 0.1 M Tris (pH 7.2), and 5% blocking reagent [Roche]) containing 2.5 μg ml^−1 Cy-3-labelled telomere-specific (CCCTAA) peptide nucleic acid probe (Panagene), followed by hybridization for 2 hour at room temperature in the dark. Slides were washed twice with 70% formamide in 2×SSC for 15 minutes, followed by washes in 2×SSC and PBS for 10 minutes. Sections were mounted in Vectashield, DAPI-containing mounting media and imaged.
A single, 3 μm-thick section per mouse was used for TAF staining, while for Dcx and Plin2 staining was performed on three 10 μm-thick sections 80 μm-apart. To quantify periventricular lipid accumulation 10-30 images in the periventricular region were taken using the DM5500 widefield fluorescence microscope from Leica with a 10× (for frequency of periventricular glia) or ×40 (for ALISE phenotype of ependymal cells) objective lens. Number of Plin2-positive cells (for frequency of ALISE-positive periventricular glia) or area of Plin2-positive vesicles (for ALISE phenotype of ependymal cells) was assessed using ImageJ software. […]

db/db mice = assay: Open field test, off-target effects of AP in db/db mice; conditions: AP 10 mg/kg i.p. 3 days every 2 weeks for 8 weeks
Protocol: (§3) For off target effect measurements db/db and HDF mice (fed with HFD for 2 months prior treatment) were injected intraperitoneally (i.p.) with […] at 10 mg/kg or vehicle for 3 days every 2 weeks for 8 weeks.
as §2

wild-type C57Bl/6 mice = assay: Open field test, off-target effects of AP in wild-type C57Bl/6 mice on HFD; conditions: AP 10 mg/kg i.p. 3 days every 2 weeks for 8 weeks
Protocol: as §3, §2

[2] = INK-ATTAC mice on HFD, AP20187 10 mg/kg i.p. 3 days every 2 weeks, 8-10 weeks, vs vehicle

CC[C@H](C(=O)N1CCCC[C@H]1C(=O)O[C@H](CCc1ccc(OC)c(OC)c1)c1cccc(OCC(=O)NCC(CNC(=O)COc2cccc([C@@H](CCc3ccc(OC)c(OC)c3)OC(=O)[C@@H]3CCCCN3C(=O)[C@@H](CC)c3cc(OC)c(OC)c(OC)c3)c2)CN(C)C)c1)c1cc(OC)c(OC)c(OC)c1 [AP]
anxiety-like behavior: distance travelled in the central zone (as function of total distance), open field (HFD-fed INK-ATTAC mice; [2]): alleviated; also recorded: reduced HFD-induced anxiety-like behavior
anxiety-like behavior: entries into the central zone, open field (HFD-fed INK-ATTAC mice; [2]): alleviated; also recorded: reduced HFD-induced anxiety-like behavior
total distance travelled, open field (HFD-fed INK-ATTAC mice; INK-ATTAC mice, AP20187 10 mg/kg i.p. vs vehicle): did not affect
open field parameters (central distance, entries) in chow-fed mice (HFD-fed INK-ATTAC mice; chow-fed INK-ATTAC mice, AP20187 10 mg/kg i.p. vs vehicle): did not affect
anxiety-like behavior: distance travelled in the central area, open field (INK-ATTAC;db/db mice): significantly reduced anxiety-like behavior
number of entries into the central area, open field (INK-ATTAC;db/db mice): not significantly increased
total distance travelled (activity), 30 minute open field (INK-ATTAC;db/db mice): not affected; also recorded: did not alter
anxiety-like behavior: distance travelled in the central area, open field (INK-ATTAC;db/db mice; listed as AP20187): significant difference
% SA-β-Gal positive cells, perigonadal adipose tissue [1]: significantly reduced
p16Ink4a (RT-PCR), perigonadal adipose tissue [1]: significantly reduced
p21 (PCR), perigonadal adipose tissue [1]: not significantly changed
telomere-associated DNA damage foci (TAF), perigonadal adipose tissue [1]: significantly reduced
γ-H2A.X DNA damage foci, perigonadal adipose tissue [1]: not significantly changed
% SA-β-Gal positive cells, perigonadal adipose tissue ([1]; listed as AP20187): complete rescue
p21 (PCR), perigonadal adipose tissue ([1]; listed as AP20187): no change
γ-H2A.X DNA damage foci, perigonadal adipose tissue ([1]; listed as AP20187): no change
anxiety-like behavior by open field test, off-target control (db/db mice): no difference; also recorded: No off-target effects
anxiety-like behavior in open field (distance in the center), off-target control (wild-type C57Bl/6 mice): no difference
